Results taken from patent US20260125428A1, “SYNTHETIC TRIPLEX PEPTIDE NUCLEIC ACID-BASED INHIBITORS FOR CANCER THERAPY” (University of Connecticut, priority 2022, published 2026).

System: c-myc protein
Assay: Efficacy study in Ep-myc mice: c-myc protein in lymph nodes by western blot
Format: in vivo
Conditions: SC 60 mg/kg over 2 days, euthanized day 3, western blot
Description: FIGS. 8A-D show organ distribution after intravenous and subcutaneous administration of indicated PNAs. (8A) The organ distribution of γPNA-NLS TAMRA after intravenous (IV) and subcutaneous (SC) administration in transgenic mice model of B-cell lymphoma (Ep-myc). γPNA-NLS TAMRA was administered at 5 mg/kg via IV and SC route and organ distribution was determined via IVIS imaging after 24 h. (8B) Confocal microscopy images of different lymph nodes (LNs) after IV and SC injection of γPNA-NLS TAMRA. Blue indicates DAPI and red indicated TAMRA. Scale bar, 30 μm. (8C) C-myc protein levels in brachial lymph nodes of γPNA5-NLS treated mice in comparison to the control (untreated mice). N=4 mice per group. (8D) C-myc protein levels in axillary lymph nodes of γPNA5-NLS treated mice in comparison to the control (untreated mice). N=4 mice per group. […]
Western blot analysis: Total protein was extracted from collected lymphocytes using 1×RIPA buffer (Cell signaling technology, USA) containing protease inhibitor. The concentration of protein was determined using absorbance-based DC protein assay (Bio-Rad, USA). […] The bands were detected using anti-rabbit IgG HRP linked secondary antibody (Cell signaling technology, #7074) (1:2000 dilution, 5% milk in TBST) and HRP substrate (Millipore sigma). The blots were imaged using ChemiDoc imager (Bio-Rad, USA) and band intensities were quantified using imageJ.

Q: “X3TCCCTCCCCTCCCTTCTTTTTCCX2 (gamma PNA; NLS peptide; gammaPNA; misc_feature 1 JJJTJJJT-linker- is covalently linked to the backbone, wherein J is pseudoisocytosine and the linker is 11-Amino-3,6,9-Trioxaundecanoic Acid (DCHA), represented as -OOO-; misc_feature 23 -K-linker-SEQ ID NO: 5 is covalently linked to the backbone, wherein the linker is 11-Amino-3,6,9-Trioxaundecanoic Acid (DCHA), represented as -OOO-; modified_base 1..23 OTHER; peptide nuc) [γPNA5-NLS]” was tested. Which “c-myc protein levels in brachial and axillary lymph nodes in comparison to untreated group” value did it give?
A: substantial decrease in c-myc protein levels
